Experiments:
[1] = target: T1, Serine/threonine-protein kinase 3 (Homo sapiens) (UniProt Q13188); assay: STK3 (MST2) Kinase screen; conditions: Compound concentration 1.0 uM
T1 sequence (whole entry): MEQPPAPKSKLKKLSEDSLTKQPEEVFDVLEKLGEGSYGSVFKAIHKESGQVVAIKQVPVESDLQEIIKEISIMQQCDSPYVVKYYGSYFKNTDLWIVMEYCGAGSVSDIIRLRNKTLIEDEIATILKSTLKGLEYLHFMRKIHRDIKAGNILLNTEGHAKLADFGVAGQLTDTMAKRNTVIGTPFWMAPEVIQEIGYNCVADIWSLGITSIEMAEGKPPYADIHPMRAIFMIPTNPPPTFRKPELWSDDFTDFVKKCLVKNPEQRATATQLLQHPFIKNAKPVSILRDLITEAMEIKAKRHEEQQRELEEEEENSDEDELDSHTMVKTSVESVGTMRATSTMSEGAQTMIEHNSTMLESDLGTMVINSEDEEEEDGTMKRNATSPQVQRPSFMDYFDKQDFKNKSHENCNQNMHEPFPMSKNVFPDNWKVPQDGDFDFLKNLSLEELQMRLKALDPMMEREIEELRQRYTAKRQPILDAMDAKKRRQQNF

[2] = target: T2, Tyrosine-protein kinase Mer (Homo sapiens) (UniProt Q12866); assay: MERTK (cMER) Kinase screen; conditions: Compound concentration 1.0 uM
T2 sequence (whole entry): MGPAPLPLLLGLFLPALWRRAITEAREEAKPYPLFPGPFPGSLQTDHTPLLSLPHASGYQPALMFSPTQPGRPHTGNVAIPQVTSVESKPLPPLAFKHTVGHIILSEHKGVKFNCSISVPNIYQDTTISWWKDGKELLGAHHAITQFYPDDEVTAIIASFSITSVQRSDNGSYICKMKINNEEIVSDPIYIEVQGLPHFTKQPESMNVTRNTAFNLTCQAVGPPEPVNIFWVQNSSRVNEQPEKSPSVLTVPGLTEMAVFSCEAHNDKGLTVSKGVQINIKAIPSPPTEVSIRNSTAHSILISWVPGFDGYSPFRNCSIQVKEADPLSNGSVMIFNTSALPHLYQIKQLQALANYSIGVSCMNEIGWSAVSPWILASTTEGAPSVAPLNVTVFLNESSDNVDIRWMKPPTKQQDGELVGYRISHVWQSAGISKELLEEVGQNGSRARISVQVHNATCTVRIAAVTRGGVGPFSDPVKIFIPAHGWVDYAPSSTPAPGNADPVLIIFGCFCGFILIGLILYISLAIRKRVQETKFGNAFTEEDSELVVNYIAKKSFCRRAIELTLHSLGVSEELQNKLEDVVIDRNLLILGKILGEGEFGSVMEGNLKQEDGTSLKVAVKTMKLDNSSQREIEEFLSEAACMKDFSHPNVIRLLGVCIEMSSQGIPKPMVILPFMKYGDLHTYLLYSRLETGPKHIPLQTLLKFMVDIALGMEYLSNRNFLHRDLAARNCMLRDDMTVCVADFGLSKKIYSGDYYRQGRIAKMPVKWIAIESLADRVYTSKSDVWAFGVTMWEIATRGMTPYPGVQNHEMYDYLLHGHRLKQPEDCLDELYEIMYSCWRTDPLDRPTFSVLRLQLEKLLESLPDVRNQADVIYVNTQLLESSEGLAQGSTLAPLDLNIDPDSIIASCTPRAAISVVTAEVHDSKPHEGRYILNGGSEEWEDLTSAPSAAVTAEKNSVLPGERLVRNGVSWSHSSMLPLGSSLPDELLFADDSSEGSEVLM

[3] = target: Phosphorylase b kinase gamma catalytic chain, skeletal muscle/heart isoform (Homo sapiens) (UniProt Q16816); assay: PHKG1 Kinase screen; conditions: Compound concentration 1.0 uM
Phosphorylase b kinase gamma catalytic chain, skeletal muscle/heart isoform (Homo sapiens), sequence (Q16816 whole entry, looked up, canonical isoform): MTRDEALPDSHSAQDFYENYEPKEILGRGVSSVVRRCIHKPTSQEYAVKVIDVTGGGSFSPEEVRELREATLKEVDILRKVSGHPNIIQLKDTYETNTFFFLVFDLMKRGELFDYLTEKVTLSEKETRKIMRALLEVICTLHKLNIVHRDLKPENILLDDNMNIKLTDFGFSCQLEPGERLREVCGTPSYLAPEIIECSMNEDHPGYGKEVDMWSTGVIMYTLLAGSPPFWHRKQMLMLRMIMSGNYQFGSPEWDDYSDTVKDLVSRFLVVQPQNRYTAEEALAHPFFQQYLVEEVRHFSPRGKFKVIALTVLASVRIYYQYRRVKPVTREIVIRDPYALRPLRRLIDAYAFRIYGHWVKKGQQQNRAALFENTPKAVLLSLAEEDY

[4] = target: T3, Muscarinic acetylcholine receptor M1 (Homo sapiens) (UniProt P11229); conditions: Compound concentration 10.0 uM
T3 sequence (whole entry): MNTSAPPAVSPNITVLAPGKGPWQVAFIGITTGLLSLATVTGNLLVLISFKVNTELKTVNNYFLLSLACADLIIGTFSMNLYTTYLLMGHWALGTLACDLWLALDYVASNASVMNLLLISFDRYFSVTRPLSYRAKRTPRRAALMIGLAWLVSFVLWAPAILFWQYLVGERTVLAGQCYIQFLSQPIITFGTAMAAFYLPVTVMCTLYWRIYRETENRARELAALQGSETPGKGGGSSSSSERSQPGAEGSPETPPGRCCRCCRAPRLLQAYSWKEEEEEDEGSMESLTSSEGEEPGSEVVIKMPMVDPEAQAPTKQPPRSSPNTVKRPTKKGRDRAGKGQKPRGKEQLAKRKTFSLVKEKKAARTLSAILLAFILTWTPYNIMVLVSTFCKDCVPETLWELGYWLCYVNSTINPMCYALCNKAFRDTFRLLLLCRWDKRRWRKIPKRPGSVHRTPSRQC

[5] = tested on: T4, Receptor-type tyrosine-protein kinase FLT3 (Homo sapiens), P36888 [D835Y]; assay: FLT3 D835Y Kinase screen; conditions: Compound concentration 1.0 uM
T4 sequence (whole entry): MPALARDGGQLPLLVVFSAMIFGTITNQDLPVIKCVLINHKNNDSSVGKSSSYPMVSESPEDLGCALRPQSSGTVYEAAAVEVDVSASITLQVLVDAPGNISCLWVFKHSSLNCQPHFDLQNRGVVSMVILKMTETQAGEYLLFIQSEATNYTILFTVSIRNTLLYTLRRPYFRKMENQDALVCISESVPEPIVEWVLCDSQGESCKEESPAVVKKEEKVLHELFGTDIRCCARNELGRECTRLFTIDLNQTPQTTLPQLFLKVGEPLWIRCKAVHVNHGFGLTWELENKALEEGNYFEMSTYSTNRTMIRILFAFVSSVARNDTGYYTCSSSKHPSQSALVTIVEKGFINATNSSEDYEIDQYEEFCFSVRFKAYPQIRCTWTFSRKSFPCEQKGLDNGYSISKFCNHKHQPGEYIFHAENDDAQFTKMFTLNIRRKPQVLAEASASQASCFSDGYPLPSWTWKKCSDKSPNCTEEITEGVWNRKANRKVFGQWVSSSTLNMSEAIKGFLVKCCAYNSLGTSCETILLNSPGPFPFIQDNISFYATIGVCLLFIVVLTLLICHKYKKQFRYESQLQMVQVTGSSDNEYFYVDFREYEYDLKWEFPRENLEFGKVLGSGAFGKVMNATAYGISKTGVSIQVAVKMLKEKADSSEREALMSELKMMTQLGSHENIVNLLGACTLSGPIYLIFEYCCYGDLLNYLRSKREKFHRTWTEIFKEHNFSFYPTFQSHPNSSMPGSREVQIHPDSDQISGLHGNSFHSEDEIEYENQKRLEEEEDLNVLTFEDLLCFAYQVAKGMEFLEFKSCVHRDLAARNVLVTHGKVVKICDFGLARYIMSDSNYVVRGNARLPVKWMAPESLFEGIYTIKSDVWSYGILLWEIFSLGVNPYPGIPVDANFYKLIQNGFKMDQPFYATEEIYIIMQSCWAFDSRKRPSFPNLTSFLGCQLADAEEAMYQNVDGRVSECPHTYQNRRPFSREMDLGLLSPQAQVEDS

Measured: inhibition

C[C@@H]1CN(c2cc(-c3n[nH]c4ccc(OC5(C)CC5)cc34)ncn2)C[C@H](C)O1 [MLi-2]
inactive: [1] 11.9% | [2] 4.76% | [3] 0.801% | [4] 12% | [5] 9.6%
